Broadly, the EC50 is the concentration giving half of the maximal effect.

Numbered stars: 1 amine (or outer) side, 2 acyl side, 3 side chain; on linkers, the order of the positions; unused ones are H or OH. Bridge positions count the residues as written; N and C are the ends. Square brackets hold non-standard residues; d marks the D form. Side chains are listed from the residue outwards. Peptide text beside a SMILES is read from it. * marks the point of attachment. C20 diacid = O=C(O)CCCCCCCCCCCCCCCCCCC(=O)*; C18 diacid = O=C(O)CCCCCCCCCCCCCCCCC(=O)*; γGlu = O=C(O)[C@H](CCC(=O)[*:2])N[*:1]; βAsp = O=C(O)[C@H](CC(=O)[*:2])N[*:1]; Hyp = O=C(O)[C@@H]1C[C@@H](O)CN1; hArg = N=C(N)NCCCC[C@H](N)C(=O)O; AEEA = NCCOCCOCC(=O)O

The target in the assay is T1, human amylin receptor (Homo sapiens, UniProt O60896+P30988).
T1 construct: host or cells: CHO-K1/Ga15/AMY3 cells, further stably transfected with a CRE-luciferase plasmid
T1 sequence (P30988 25-474): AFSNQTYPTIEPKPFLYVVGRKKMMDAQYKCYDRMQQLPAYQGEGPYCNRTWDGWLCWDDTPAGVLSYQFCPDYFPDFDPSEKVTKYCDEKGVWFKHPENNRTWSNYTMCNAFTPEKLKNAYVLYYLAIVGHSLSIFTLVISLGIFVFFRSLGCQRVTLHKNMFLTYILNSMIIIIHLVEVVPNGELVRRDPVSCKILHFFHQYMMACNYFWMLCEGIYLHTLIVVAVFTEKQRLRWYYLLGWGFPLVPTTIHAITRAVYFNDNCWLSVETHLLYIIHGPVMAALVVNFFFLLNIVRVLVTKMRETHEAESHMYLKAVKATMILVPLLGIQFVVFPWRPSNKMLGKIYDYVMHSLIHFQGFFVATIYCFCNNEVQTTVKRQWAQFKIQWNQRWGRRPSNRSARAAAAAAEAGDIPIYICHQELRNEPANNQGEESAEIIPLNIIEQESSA
T1 sequence (O60896 24-148 partner): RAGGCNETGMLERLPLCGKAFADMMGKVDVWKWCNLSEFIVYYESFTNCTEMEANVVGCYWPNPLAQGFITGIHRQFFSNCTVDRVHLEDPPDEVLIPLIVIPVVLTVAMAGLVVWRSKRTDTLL
Briefly: Luciferase assay of amylin derivatives in amylin receptor/CRE-luc CHO cell line. It is filed as cell-based. The following applies: CHO-K1/Ga15/AMY3 CRE-luc cells, 24 hours incubation, F12 medium containing 10% FBS; read-out: EC50.
Method: The experiment was intended to detect the activity or efficacy of the amylin derivatives on a human amylin receptor in vitro by luciferase assay.
50 μL of growth medium (F12 medium containing 10% FBS) was added into each well of a white 96-well plate, and the stably transfected amylin/CRE-lue CHO cells were inoculated into the white 96-well plate at a density of about 20,000 cells/well for activity determination.
As for `CC[C@H](C)[C@H](NC(=O)[C@@H]1CCCN1C(=O)[C@H](CCCCN)NC(=O)[C@H](CC(C)C)NC(=O)[C@H](CC(N)=O)NC(=O)[C@H](CC(N)=O)NC(=O)[C@H](CO)NC(=O)[C@H](CO)NC(=O)[C@H](Cc1c[nH]cn1)NC(=O)[C@H](CCCNC(=N)N)NC(=O)[C@H](CC(C)C)NC(=O)[C@H](Cc1ccccc1)NC(=O)[C@H](CC(=O)O)NC(=O)[C@H](C)NC(=O)[C@H](CC(C)C)NC(=O)[C@H](CCCNC(=N)N)NC(=O)[C@H](CCC(N)=O)NC(=O)[C@@H](NC(=O)[C@H](C)NC(=O)[C@@H]1CSSC[C@H](NC(=O)[C@H](CCCCN)NC(=O)C[C@H](NC(=O)COCCOCCNC(=O)COCCOCCNC(=O)CCCCCCCCCCCCCCCCCCC(=O)O)C(=O)O)C(=O)N[C@@H](CC(N)=O)C(=O)N[C@@H]([C@@H](C)O)C(=O)N[C@@H](C)C(=O)N[C@@H]([C@@H](C)O)C(=O)N1)[C@@H](C)O)C(=O)N[C@@H](CC(C)C)C(=O)N1CCC[C@H]1C(=O)N1CCC[C@H]1C(=O)N[C@H](C(=O)N[C@@H](CC(N)=O)C(=O)N[C@H](C(=O)NCC(=O)N[C@@H](CO)C(=O)N[C@@H](CC(N)=O)C(=O)N[C@H](C(=O)N1C[C@H](O)C[C@H]1C(N)=O)[C@@H](C)O)C(C)C)[C@@H](C)O` [PD184] ({C20 diacid-AEEA-AEEA-βAsp}-KCNTATCATQRLADFLRHSSNNLKPILPPTNVGSNT[Hyp]-NH2; disulfide 2-7 (inferred)), the EC50 was 0.037 nM.

On to `CC[C@H](C)[C@H](NC(=O)[C@@H]1CCCN1C(=O)[C@H](CCCCNC(=O)CC[C@H](NC(=O)CCCCCCCCCCCCCCCCCCC(=O)O)C(=O)O)NC(=O)[C@H](CC(C)C)NC(=O)[C@H](CC(N)=O)NC(=O)[C@H](CC(N)=O)NC(=O)[C@H](CO)NC(=O)[C@H](CO)NC(=O)[C@H](Cc1c[nH]cn1)NC(=O)[C@H](CCCNC(=N)N)NC(=O)[C@H](CC(C)C)NC(=O)[C@H](Cc1ccccc1)NC(=O)[C@H](CCC(=O)O)NC(=O)[C@H](C)NC(=O)[C@H](CC(C)C)NC(=O)[C@H](CCCNC(=N)N)NC(=O)[C@H](CCC(N)=O)NC(=O)[C@@H](NC(=O)[C@H](C)NC(=O)[C@@H]1CSSC[C@H](NC(=O)[C@@H](N)CCCNC(=N)N)C(=O)N[C@@H](CC(N)=O)C(=O)N[C@@H]([C@@H](C)O)C(=O)N[C@@H](C)C(=O)N[C@@H]([C@@H](C)O)C(=O)N1)[C@@H](C)O)C(=O)N[C@@H](CC(C)C)C(=O)N1CCC[C@H]1C(=O)N1CCC[C@H]1C(=O)N[C@H](C(=O)N[C@@H](CC(N)=O)C(=O)N[C@H](C(=O)NCC(=O)N[C@@H](CO)C(=O)NCC(=O)N[C@H](C(=O)N1C[C@H](O)C[C@H]1C(N)=O)[C@@H](C)O)C(C)C)[C@@H](C)O` [PD041] (H-RCNTATCATQRLAEFLRHSSNNLK([γGlu-C20 diacid])PILPPTNVGSGT[Hyp]-NH2; disulfide 2-7), for which the EC50 is 0.259 nM.

Take `CC[C@H](C)[C@H](NC(=O)[C@@H]1CCCN1C(=O)CNC(=O)[C@H](CC(C)C)NC(=O)[C@H](CCCCNC(=O)COCCOCCNC(=O)COCCOCCNC(=O)CC[C@H](NC(=O)CCCCCCCCCCCCCCCCC(=O)O)C(=O)O)NC(=O)[C@H](CC(N)=O)NC(=O)[C@H](CO)NC(=O)[C@H](CO)NC(=O)[C@H](Cc1c[nH]cn1)NC(=O)[C@H](CCCNC(=N)N)NC(=O)[C@H](CC(C)C)NC(=O)[C@H](Cc1ccccc1)NC(=O)[C@H](CC(=O)O)NC(=O)[C@H](C)NC(=O)[C@H](CC(C)C)NC(=O)[C@H](CCCNC(=N)N)NC(=O)[C@H](CCC(N)=O)NC(=O)[C@@H](NC(=O)[C@H](C)NC(=O)[C@@H]1CSSC[C@H](NC(=O)[C@@H](N)CCCNC(=N)N)C(=O)N[C@@H](CC(N)=O)C(=O)N[C@@H]([C@@H](C)O)C(=O)N[C@@H](C)C(=O)N[C@@H]([C@@H](C)O)C(=O)N1)[C@@H](C)O)C(=O)N[C@@H](CC(C)C)C(=O)N1CCC[C@H]1C(=O)N1CCC[C@H]1C(=O)N[C@H](C(=O)N[C@@H](CC(N)=O)C(=O)N[C@H](C(=O)NCC(=O)N[C@@H](CO)C(=O)N[C@@H](CC(N)=O)C(=O)N[C@H](C(=O)N1C[C@H](O)C[C@H]1C(N)=O)[C@@H](C)O)C(C)C)[C@@H](C)O` [PD089] (H-RCNTATCATQRLADFLRHSSNK([AEEA-AEEA-γGlu-C18 diacid])LGPILPPTNVGSNT[Hyp]-NH2; disulfide 2-7): the EC50 worked out at 0.018 nM.

Consider `CC[C@H](C)[C@H](NC(=O)[C@@H]1CCCN1C(=O)[C@H](CCCCNC(=O)CC[C@H](NC(=O)CCCCCCCCCCCCCCCCCCC(=O)O)C(=O)O)NC(=O)[C@H](CC(C)C)NC(=O)[C@H](CC(N)=O)NC(=O)[C@H](CC(N)=O)NC(=O)[C@H](CO)NC(=O)[C@H](CO)NC(=O)[C@H](Cc1c[nH]cn1)NC(=O)[C@H](CCCNC(=N)N)NC(=O)[C@H](CC(C)C)NC(=O)[C@H](Cc1ccccc1)NC(=O)[C@H](CC(=O)O)NC(=O)[C@H](C)NC(=O)[C@H](CC(C)C)NC(=O)[C@H](CCCNC(=N)N)NC(=O)[C@H](CCC(N)=O)NC(=O)[C@@H](NC(=O)[C@H](C)NC(=O)[C@@H]1CSSC[C@H](NC(=O)[C@@H](N)CCCCNC(=N)N)C(=O)N[C@@H](CC(N)=O)C(=O)N[C@@H]([C@@H](C)O)C(=O)N[C@@H](C)C(=O)N[C@@H]([C@@H](C)O)C(=O)N1)[C@@H](C)O)C(=O)N[C@@H](CC(C)C)C(=O)N1CCC[C@H]1C(=O)N1CCC[C@H]1C(=O)N[C@H](C(=O)N[C@@H](CC(N)=O)C(=O)N[C@H](C(=O)NCC(=O)N[C@@H](CO)C(=O)N[C@@H](CC(N)=O)C(=O)N[C@H](C(=O)N1C[C@H](O)C[C@H]1C(N)=O)[C@@H](C)O)C(C)C)[C@@H](C)O` [PD077] (H-[hArg]CNTATCATQRLADFLRHSSNNLK([γGlu-C20 diacid])PILPPTNVGSNT[Hyp]-NH2; disulfide 2-7), for which the EC50 was 0.034 nM.

With `CC[C@H](C)[C@H](NC(=O)[C@@H]1CCCN1C(=O)CNC(=O)[C@H](CC(C)C)NC(=O)[C@H](CC(N)=O)NC(=O)[C@H](CC(N)=O)NC(=O)[C@H](CCCCNC(=O)COCCOCCNC(=O)CC[C@H](NC(=O)CCCCCCCCCCCCCCCCCCC(=O)O)C(=O)O)NC(=O)[C@H](CO)NC(=O)[C@H](Cc1c[nH]cn1)NC(=O)[C@H](CCCNC(=N)N)NC(=O)[C@H](CC(C)C)NC(=O)[C@H](Cc1ccccc1)NC(=O)[C@H](CC(=O)O)NC(=O)[C@H](C)NC(=O)[C@H](CC(C)C)NC(=O)[C@H](CCCNC(=N)N)NC(=O)[C@H](CCC(N)=O)NC(=O)[C@@H](NC(=O)[C@H](C)NC(=O)[C@@H]1CSSC[C@H](NC(=O)[C@@H](N)CCCNC(=N)N)C(=O)N[C@@H](CC(N)=O)C(=O)N[C@@H]([C@@H](C)O)C(=O)N[C@@H](C)C(=O)N[C@@H]([C@@H](C)O)C(=O)N1)[C@@H](C)O)C(=O)N[C@@H](CC(C)C)C(=O)N1CCC[C@H]1C(=O)N1CCC[C@H]1C(=O)N[C@H](C(=O)N[C@@H](CC(N)=O)C(=O)N[C@H](C(=O)NCC(=O)N[C@@H](CO)C(=O)N[C@@H](CC(N)=O)C(=O)N[C@H](C(=O)N1C[C@H](O)C[C@H]1C(N)=O)[C@@H](C)O)C(C)C)[C@@H](C)O` [PD116] (H-RCNTATCATQRLADFLRHSK([AEEA-γGlu-C20 diacid])NNLGPILPPTNVGSNT[Hyp]-NH2; disulfide 2-7), the concentration for a half-maximal effect (EC50) amounted to 0.033 nM.

Consider `CC[C@H](C)[C@H](NC(=O)[C@@H]1CCCN1C(=O)[C@H](CCCCN)NC(=O)[C@H](CC(C)C)NC(=O)[C@H](CC(N)=O)NC(=O)[C@H](CC(N)=O)NC(=O)[C@H](CO)NC(=O)[C@H](CO)NC(=O)[C@H](Cc1c[nH]cn1)NC(=O)[C@H](CCCNC(=N)N)NC(=O)[C@H](CC(C)C)NC(=O)[C@H](Cc1ccccc1)NC(=O)[C@H](CC(=O)O)NC(=O)[C@H](C)NC(=O)[C@H](CC(C)C)NC(=O)[C@H](CCCNC(=N)N)NC(=O)[C@H](CCC(N)=O)NC(=O)[C@@H](NC(=O)[C@H](C)NC(=O)[C@@H]1CSSC[C@H](NC(=O)[C@H](CCCCN)NC(=O)[C@H](CC(=O)O)NC(=O)COCCOCCNC(=O)COCCOCCNC(=O)CCCCCCCCCCCCCCCCCCC(=O)O)C(=O)N[C@@H](CC(N)=O)C(=O)N[C@@H]([C@@H](C)O)C(=O)N[C@@H](C)C(=O)N[C@@H]([C@@H](C)O)C(=O)N1)[C@@H](C)O)C(=O)N[C@@H](CC(C)C)C(=O)N1CCC[C@H]1C(=O)N1CCC[C@H]1C(=O)N[C@H](C(=O)N[C@@H](CC(N)=O)C(=O)N[C@H](C(=O)NCC(=O)N[C@@H](CO)C(=O)N[C@@H](CC(N)=O)C(=O)N[C@H](C(=O)N1C[C@H](O)C[C@H]1C(N)=O)[C@@H](C)O)C(C)C)[C@@H](C)O` [PD182] ({C20 diacid-AEEA-AEEA}-DKCNTATCATQRLADFLRHSSNNLKPILPPTNVGSNT[Hyp]-NH2; disulfide 3-8), for which the EC50 came out at 0.034 nM.

The values are drawn from patent publication US20260166128A1, “HUMAN AMYLIN ANALOG, AND DERIVATIVE THEREOF AND USE THEREOF” (priority 2022, published 2026).
